Results on 2 compounds are retold here after patent publication US8772252B2, “Coumarin compounds as melanogenesis modifiers and uses thereof” (New York University, priority 2011, dated 2014).

In the assay the test system is cultured murine melanocytes (melan-a). Description: Melanin assay in cultured murine melanocytes (melan-a) screened with library compounds. In kind it is cell-based. The following applies: melan-a cells, 72 hours of incubation. On the procedure: The Spectrum Collection library consisting of 2000 drug compounds or natural products represents a source for the identification of compounds useful in the present invention. The library may be screened to identify novel pigmentation inhibitors in cultured murine melanocytes (melan-a). Compounds are dissolved in dimethylsulfoxide (DMSO) to a final concentration of 10 mM. Screening is performed with cultured melanocytes in 24-well plates followed by melanin assay (see below). A minimum change of 50% in melanin formation is established as significant for a pigmentation inhibitor. DMSO may be used as a negative control and the widely used depigmenting agent, hydroquinone, may be used as a positive control on every plate. Primary screening is performed at a final concentration of 1 μM and potential candidates from the primary screening are reconfirmed in duplicate at final concentrations of 1 and 5 μM.
Melan-a cells are plated at 5×10^4 cells per well in 1 ml of culture media in 24-well plates the day before adding the library compounds. All compounds are added at the indicated final concentrations. Cells are harvested after 72 hours of incubation, and the melanin assay is performed.
For further test and mechanism of action studies, the compounds may be purchased from Sigma, MicroSource or other known suppliers. The compounds are dissolved in dimethylsulfoxide (DMSO) to a final concentration of 10 mM, and are tested for their effect on melanin synthesis at the indicated final concentrations.
For the primary and secondary screening, cells were harvested and dissolved in 200 μl of 2N NaOH in 20% DMSO at 70° C. A 180-μl aliquot of the resulting solution was measured for absorbance at 490 nm.
Cells are harvested in extraction buffer (1% Triton X-100, 50 mM Tris, 2 mM EDTA, 150 mM NaCl, pH 7.5) containing a complete protease inhibitor cocktail (Roche). The lysates were centrifuged at 14,000 rpm for 10 minutes at 4° C. BCA protein assay kit (Pierce) was used to measure the protein concentrations of the supernatants, and bovine serum albumin was used as a standard. The remaining pellets were incubated with 100 μl ethanol-ether (1:1) for 10 minutes at room temperature. After removing the ethanol-ether, the pellets were dissolved in 200 μl of 2N NaOH in 20% DMSO at 70° C. A 180-μl aliquot of the resulting solution was measured for absorbance at 490 nm. The melanin contents were normalized to the total amount of protein.

Structures are written as SMILES.

`CC(C)(OC(=O)c1ccccc1)[C@@H]1Cc2cc3ccc(=O)oc3cc2O1` [compound 36]: the activity at 1 µM (Mus musculus, Melan-a, 72 h, 1 μM, read-out: % of control melanin remaining after treatment @ 1 μM) is 81%. Besides, where the note is “Mus musculus, Melan-a, 72 h, 5 μM, read-out: % of control melanin remaining after treatment @ 5 μM”, the activity at 5 µM came out at 87%.
For the compound `COc1c(C(C)C)oc2cc3oc(=O)ccc3cc12` [compound 40], where the note is “1 μM”, the “% of control melanin remaining after treatment @ 1 μM” value is reported as 97%. The “% of control melanin remaining after treatment @ 5 μM” value (5 μM) came out at 88%.
